{"source": "patent US20150094376A1", "about": "“Hexamethonium Reverses the Lethal Cardiopulmonary Damages in a Rat Model of Brain Stem Lesions Mimicking Fatal Enterovirus 71 Encephalitis” (Kaohsiung Veterans General Hospital, priority 2013, published 2015)", "assay_type_in_all_cases": "in vivo, Sprague Dawley rats", "key": {"[1]": {"tested_on": "rats with bilateral 6-OHDA lesions of the NTS", "assay": "BP and HR recording and survival in rats with 6-OHDA lesions of the NTS (rat model mimicking fatal EV 71 encephalitis)", "settings": "for survival time after NTS lesion: n=6, 6-OHDA rats died within 7 hours", "source_text": "(§1) Three sets of experiments were designed according to the three specific aims mentioned above. The first set of experiments was to establish a rat model by micro-injecting 6-hydroxydopamin (6-OHDA) into NTS leading to acute fulminating hypertension and pulmonary hemorrhagic edema. We recorded the blood pressure (BP) and heart rate (HR) in trend. Two groups of rats (n=6 in each group) were studied: 1) an intervention group in which 6-OHDA (Sigma, […]) dissolved in vehicle (0.8% ascorbic acid in saline) was injected into NTS bilaterally; and 2) a control group that received injections of equal volumes of vehicle alone. Each group of rats was anesthetized with urethane (1 g/kg, i.p.) and connected to oscillator circuits for BP and HR recording via […]. For microinjections into the NTS, the rats were anesthetized and placed in a stereotaxic frame; then the dorsal surface of the medulla was exposed. A glass cannula was filled with L-glutamate (0.154 mmol/60 n1) to functionally identify the NTS.\n(§2) The third set of experiments (intervention-treatment and control-treatment groups) was to infuse the ganglionic blocker (hexamethonium (Sigma), 25 mg/kg, iv) via the femoral vein at the time point of 10 minutes after NTS lesion to record BP and HR in trend (n=6 in each group) and the rats respectively were sacrificed at the time point (0, 3, 6 and 12 hours) for analyzing the parameters as discussed in the second set of experiments."}, "[2]": {"tested_on": "control rats with NTS microinjected with vehicle", "assay": "BP and HR recording in control-treatment group (vehicle injected into NTS, then hexamethonium)", "settings": "no 6-OHDA lesion; hexamethonium 25 mg/kg iv", "source_text": "as §1, with “NTS. […]” for “NTS.”"}, "[3]": {"tested_on": "rats with bilateral 6-OHDA lesions of the NTS", "assay": "Epinephrine and norepinephrine levels by enzyme immunoassay in rats with 6-OHDA lesions", "protocol": "as §2\nAll blood samples were collected into micro-tubes and placed immediately into to an ice bath. The samples, then, were centrifuged at 10000 rpm for 20 minutes at 4° C. Aliquots of plasma were removed and stored at −80° C. until assayed for content of epinephrine and norepinephrine within four weeks utilizing enzyme immunoassay for the high-sensitive quantitative determination by Labor Diagnostika Nord-Medicrop Inc."}, "[4]": {"tested_on": "rats with bilateral 6-OHDA lesions of the NTS", "assay": "Echocardiography in rats with 6-OHDA lesions", "protocol": "After the first set of the rat model was established, the second set of experiments intended to determine some time points for analysis. Rats were anesthetized with pentobarbital (50 mg/kg, ip) before NTS lesion. After surgery (lesion of the NTS), the wounds were closed and the rats were removed from the stereotaxic frame for further observation. Each rat was placed in a small cage and woken within 30 minutes for free activity. The rat were respectively sacrificed (intervention and control group, n=6 in each group) at different time point (0, 3 and 6 hours) for analyzing histopathology and biochemistry from blood, brain, heart and lung. Before sacrificing, echocardiography was performed to exanimate left ventricular (LV) wall thickness and cardiac function.\nas §2\nRats were immobilized and shaved on the chest for echocardiographic examinations using commercially available equipment (Vivid 7, GE Ultrasound, Horten, Norway) equipped with 10-MHz phased array transducers. All the records were stored digitally as two-dimensional cine loops and analyzed with customized dedicated research software (Echo PAC, GE Ultrasound, Horten, Norway). Two-dimensionally guided M-mode recordings were obtained from the parasternal short-axis view at a depth of 2 cm at the level of the papillary muscles. M-Mode tracing were recorded at a speed of 200 mm/s. The measurements were made using the method of the American Society of Echocardiography and the parameters were measured digitally on the M-mode tracing and averaged from 5 consecutive cardiac cycles."}, "[5]": {"tested_on": "rats with bilateral 6-OHDA lesions of the NTS", "assay": "Heart histopathology and immunohistochemistry (H&E, troponin T, BNP, connexin 43) in rats with 6-OHDA lesions", "protocol": "as §2\n(§3) For hematoxylin and eosin staining, the rat brain, heart, and lungs were excised immediately after blood sampling. They were rinsed with saline, free from blood or fatty tissue, lightly blotted with filter paper, and then were placed in 10% formalin for five days and blocked, embedded in paraffin, cut in 4 μm sections, and stained with hematoxylin and eosin.\n(§4) Immunohistochemical analysis (troponin T and brain natriuretic peptide in heart tissue, neutrophil cell in lung tissue, and connexin 43 assays in the lung and heart tissues) was performed on the sections after the paraffin was melted in an oven at 70° C. for one hour. The sections were deparaffinized, microwaved in citric buffer (10 mmol/L, pH 6.0), blocked in 3% goat serum, and incubated with anti-cardiac troponin T antibody (1:200; Abeam), anti-myosin VIIa antibody (1:200; Abeam), anti-brain natriuretic peptide polyclonal antibody (1:1000; Thermo Fisher Scientific Inc.), anti-neutrophil elastase antibody (1:400; Abeam), and anti-connexin 43/GJA1 antibody (1:200; Abcam) overnight at 4° C. Next, the sections were incubated with biotinylated secondary antibodies (1:200; Vector Laboratories, Burlingame, Calif., USA) for one hour and in AB complex (1:100) for 30 minutes at room temperature. The sections were visualized with a DAB substrate kit (Vector Laboratories) and counterstained with hematoxylin. The sections were then photographed with a microscope mounted with a charge-coupled device camera."}, "[6]": {"tested_on": "rats with bilateral 6-OHDA lesions of the NTS", "assay": "Pulmonary edema index and gross lung specimens in rats with 6-OHDA lesions", "settings": "n=6 per group", "protocol": "as §2\nAfter the blood-sampled rats were sacrificed, the chest each of the rats was opened to remove the lung and the heart, and then the skull was opened for NTS tissue. To estimate the liquid accumulation in the lungs, both lungs were weighted, then dried in an oven at 80° C. for two days and weighted as dry lung weight. The total weight/body multiplies by 100 and wet-to-dry lung weight ratio were calculated for indicating the degree of pulmonary edema."}, "[7]": {"tested_on": "rats with bilateral 6-OHDA lesions of the NTS", "assay": "Lung histopathology and immunohistochemistry (H&E, PMN, connexin 43) in rats with 6-OHDA lesions", "settings": "n=6 per group", "protocol": "as §2, §3, §4"}}, "data": [{"smiles": "C[N+](C)(C)CCCCCC[N+](C)(C)C", "note": "[hexamethonium]", "values": [{"measurement": "HR at 3 hours", "setting": "[1]; 25 mg/kg iv 10 minutes after 6-OHDA lesion, 3 hours", "result": "no significant reduction in HR"}, {"measurement": "HR immediately after hexamethonium", "setting": "[1]; 25 mg/kg iv 10 minutes after 6-OHDA lesion, immediately", "result": "a reduction in HR"}, {"measurement": "acute hypertension induced by 6-OHDA lesions", "setting": "[1]; hexamethonium 25 mg/kg iv 10 minutes after NTS lesion, FIG. 1B", "result": "reversed"}, {"measurement": "acute high rise in mean blood pressure (MBP) caused by 6-OHDA lesions", "setting": "[1]; hexamethonium 25 mg/kg iv 10 minutes after NTS lesion, FIG. 1C, n=6 per group", "result": "significantly reversed"}, {"measurement": "survival time after NTS lesion", "setting": "[1]; hexamethonium 25 mg/kg iv 10 minutes after NTS lesion", "result": "at least 14 hours"}, {"measurement": "survival time after NTS lesion", "setting": "[1]; hexamethonium 25 mg/kg iv 10 minutes after NTS lesion, listed as Hexamethonium", "result": "more than 14 hours"}, {"measurement": "labored breathing", "setting": "[1]; hexamethonium 25 mg/kg iv 10 minutes after NTS lesion, up to 14 hours post NTS lesion", "result": "did not exhibit significantly labored breathing until 14 hours"}, {"measurement": "HR in control-treatment group", "setting": "[2]", "result": "no associated significant change in HR"}, {"measurement": "mean blood pressure in control-treatment group", "setting": "[2]", "result": "significantly decreased"}, {"measurement": "level of epinephrine at 6 hours, 6-OHDA vs 6-OHDA+Hexamethonium", "setting": "[3]; 6 hours", "result": "no significant differences"}, {"measurement": "level of norepinephrine at 6 hours, 6-OHDA vs 6-OHDA+Hexamethonium", "setting": "[3]; 6 hours", "result": "no significant differences"}, {"measurement": "acute high rise of epinephrine serum level post 6-OHDA lesions", "setting": "[3]; within 3 hours after hexamethonium treatment, FIG. 1D, n=6 per group", "result": "significantly lowered"}, {"measurement": "acute high rise of norepinephrine serum level post 6-OHDA lesions", "setting": "[3]; within 3 hours after hexamethonium treatment, FIG. 1E, n=6 per group", "result": "significantly lowered"}, {"measurement": "acute increase in fraction shortening", "setting": "[4]; 3 hours", "result": "attenuated or reversed"}, {"measurement": "decrease in the LV internal dimension in diastole and systole", "setting": "[4]; 3 hours and 6 hours", "result": "reversed or attenuated"}, {"measurement": "acute decrease in cardiac output after 6-OHDA lesions", "setting": "[4]; 3 hours and 6 hours, FIG. 2E", "result": "prevented"}, {"measurement": "acute increase in ejection fraction", "setting": "[4]; 3 hours, FIG. 2F", "result": "attenuated or reversed"}, {"measurement": "acute increase in LV wall thickness", "setting": "[4]; 3 hours, FIGS. 2G and 2H", "result": "attenuated or reversed"}, {"measurement": "increase of irregular wavy fibers with increased eosinophilic staining of the cytoplasm and contraction bands necrosis in heart (H&E)", "setting": "[5]; 3 hours and 6 hours, FIG. 3A, n=6 per group", "result": "prevented"}, {"measurement": "increased BNP staining in the cytoplasm (heart)", "setting": "[5]; 3 hours and 6 hours, FIG. 3C, n=6 per group", "result": "reduced"}, {"measurement": "increased and strong expressions of connexin 43 in heart muscle", "setting": "[5]; 3 hours and 6 hours, FIG. 3D, n=6 per group", "result": "reduced"}, {"measurement": "increased expression of cardiac troponin T", "setting": "[5]; 6 hours, FIGS. 3B and 3E, n=4 per group", "result": "reduced"}, {"measurement": "mild and severe lung congestion (gross lungs)", "setting": "[6]; 3 hours and 6 hours, FIG. 4A", "result": "prevented"}, {"measurement": "increased wet-to-dry lung weight ratio (W/D)", "setting": "[6]; 6 hours, FIG. 4B", "result": "reversed"}, {"measurement": "increased total lung/body weight (BW)", "setting": "[6]; 6 hours, FIG. 4C", "result": "reversed"}, {"measurement": "increased infiltrates of red blood cells and formation of hyaline membrane in lung (H&E)", "setting": "[7]; 3 hours and 6 hours, FIG. 5A", "result": "prevented"}, {"measurement": "increased expressions of connexin 43 in lung", "setting": "[7]; 3 hours and 6 hours, FIG. 5C", "result": "attenuated"}, {"measurement": "increased infiltrates of PMN in lung", "setting": "[7]; 6 hours, FIG. 5B", "result": "reduced"}]}]}
